Measured values from ChEMBL document CHEMBL4376889, “Discovery of a Brain-Penetrant ATP-Competitive Inhibitor of the Mechanistic Target of Rapamycin (mTOR) for CNS Disorders” (J Med Chem, 2020).
Values after ≈ are worked out from the molar mass of the structure shown. Active and inactive are the calls of the source. No cut-off for these calls is given here.

How the values were obtained:
Cytochrome P450 3A4 = Cytochrome P450 3A4 (Homo sapiens, UniProt P08684); experiment: Inhibition of CYP3A4 (unknown origin); type: ADME
Cytochrome P450 3A4, sequence (P08684 whole entry): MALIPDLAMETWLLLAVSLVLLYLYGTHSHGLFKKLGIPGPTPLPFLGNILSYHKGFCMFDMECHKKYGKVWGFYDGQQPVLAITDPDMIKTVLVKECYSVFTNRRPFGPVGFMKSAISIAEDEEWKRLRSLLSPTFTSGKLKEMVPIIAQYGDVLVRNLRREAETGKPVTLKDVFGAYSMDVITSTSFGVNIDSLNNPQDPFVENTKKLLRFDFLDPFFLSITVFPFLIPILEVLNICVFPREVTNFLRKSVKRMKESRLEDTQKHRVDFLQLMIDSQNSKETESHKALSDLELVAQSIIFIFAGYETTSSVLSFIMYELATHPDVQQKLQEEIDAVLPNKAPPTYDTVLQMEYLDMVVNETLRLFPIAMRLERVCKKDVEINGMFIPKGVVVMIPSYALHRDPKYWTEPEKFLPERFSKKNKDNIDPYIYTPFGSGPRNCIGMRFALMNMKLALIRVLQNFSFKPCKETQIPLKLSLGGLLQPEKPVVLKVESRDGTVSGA

[1] = biological target: T1, Serine/threonine-protein kinase mTOR (Mus musculus, UniProt Q9JLN9); experiment: Inhibition of mTOR in mouse MEF cells harboring TSC1 deletion mutant assessed as reduction in PS6 phosphorylation incuabted for 2 hrs alexa fluor 594 and Hoechst staining based fluorescence assay; type: cell-based
MDR1 = experiment: Efflux ratio of permeability from basolateral to apical over apical to basolateral side in MDCK-MDR1 cells; type: ADME, cell-based, Canis lupus familiaris; details: dog
[2] = Stability in rat liver microsomes assessed as intrinsic clearance at 1 uM incubated for 30 mins by LC-MS/MS analysis; type: ADME, Microsome; details: read-out: CLH
[3] = Solubility of compound at pH 6.8; type: physicochemical; details: buffer
Cortical neurone [4] = experiment: Inhibition of oversizing of mouse primary cortical neuron harboring TSC1 deletion mutant at 20 nM incubated for 7 days by immunofluorescence assay; type: functional, cell-based; details: 168 h
Cortical neurone [5] = experiment: Inhibition of overgrowth of mouse primary cortical neuron harboring TSC1 deletion mutant at 20 nM incubated for 7 days by immunofluorescence assay; type: functional, cell-based
Mus musculus = experiment: Protection against C57BL/6J mouse model of neuronal mTOR hyperactivity assessed as survival rate at 6 mg/kg, ip administered on postnatal day 22 daily and measured on postnatal day 52 (reference value: 48 %); type: functional
[6] = biological target: Phosphatidylinositol 4,5-bisphosphate 3-kinase catalytic subunit alpha isoform (Homo sapiens, UniProt P42336); experiment: Inhibition of PI3Kalpha (unknown origin)
Phosphatidylinositol 4,5-bisphosphate 3-kinase catalytic subunit alpha isoform, sequence (P42336 whole entry, canonical isoform): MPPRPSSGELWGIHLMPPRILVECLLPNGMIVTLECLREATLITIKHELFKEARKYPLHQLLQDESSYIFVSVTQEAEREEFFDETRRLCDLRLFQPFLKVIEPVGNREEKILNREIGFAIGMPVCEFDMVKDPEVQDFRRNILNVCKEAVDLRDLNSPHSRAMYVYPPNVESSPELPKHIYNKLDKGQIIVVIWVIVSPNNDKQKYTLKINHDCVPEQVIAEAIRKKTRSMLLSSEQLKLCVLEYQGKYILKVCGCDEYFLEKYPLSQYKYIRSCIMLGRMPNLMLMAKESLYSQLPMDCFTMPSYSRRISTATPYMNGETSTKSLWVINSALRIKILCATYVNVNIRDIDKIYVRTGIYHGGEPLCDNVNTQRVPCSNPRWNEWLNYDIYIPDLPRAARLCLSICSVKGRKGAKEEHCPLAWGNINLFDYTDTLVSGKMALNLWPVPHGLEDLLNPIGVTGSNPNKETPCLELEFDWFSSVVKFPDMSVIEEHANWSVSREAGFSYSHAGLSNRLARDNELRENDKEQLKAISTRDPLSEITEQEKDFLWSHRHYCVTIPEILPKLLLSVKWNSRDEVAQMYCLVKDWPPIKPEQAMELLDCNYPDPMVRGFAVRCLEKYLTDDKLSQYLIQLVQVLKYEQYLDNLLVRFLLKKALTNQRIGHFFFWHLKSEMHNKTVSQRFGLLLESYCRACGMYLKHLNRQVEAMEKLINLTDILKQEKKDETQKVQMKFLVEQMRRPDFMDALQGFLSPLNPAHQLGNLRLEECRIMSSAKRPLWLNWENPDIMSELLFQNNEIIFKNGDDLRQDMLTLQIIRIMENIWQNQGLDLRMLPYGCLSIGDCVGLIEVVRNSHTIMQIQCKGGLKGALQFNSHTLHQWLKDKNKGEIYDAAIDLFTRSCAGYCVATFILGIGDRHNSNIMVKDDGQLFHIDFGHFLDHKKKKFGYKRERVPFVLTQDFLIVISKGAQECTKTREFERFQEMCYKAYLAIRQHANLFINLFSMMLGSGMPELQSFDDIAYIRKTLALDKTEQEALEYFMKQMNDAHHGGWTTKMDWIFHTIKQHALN

[7] = biological target: Phosphatidylinositol 4,5-bisphosphate 3-kinase catalytic subunit beta isoform (Homo sapiens, UniProt P42338); experiment: Inhibition of PI3Kbeta (unknown origin)
Phosphatidylinositol 4,5-bisphosphate 3-kinase catalytic subunit beta isoform, sequence (P42338 whole entry, canonical isoform): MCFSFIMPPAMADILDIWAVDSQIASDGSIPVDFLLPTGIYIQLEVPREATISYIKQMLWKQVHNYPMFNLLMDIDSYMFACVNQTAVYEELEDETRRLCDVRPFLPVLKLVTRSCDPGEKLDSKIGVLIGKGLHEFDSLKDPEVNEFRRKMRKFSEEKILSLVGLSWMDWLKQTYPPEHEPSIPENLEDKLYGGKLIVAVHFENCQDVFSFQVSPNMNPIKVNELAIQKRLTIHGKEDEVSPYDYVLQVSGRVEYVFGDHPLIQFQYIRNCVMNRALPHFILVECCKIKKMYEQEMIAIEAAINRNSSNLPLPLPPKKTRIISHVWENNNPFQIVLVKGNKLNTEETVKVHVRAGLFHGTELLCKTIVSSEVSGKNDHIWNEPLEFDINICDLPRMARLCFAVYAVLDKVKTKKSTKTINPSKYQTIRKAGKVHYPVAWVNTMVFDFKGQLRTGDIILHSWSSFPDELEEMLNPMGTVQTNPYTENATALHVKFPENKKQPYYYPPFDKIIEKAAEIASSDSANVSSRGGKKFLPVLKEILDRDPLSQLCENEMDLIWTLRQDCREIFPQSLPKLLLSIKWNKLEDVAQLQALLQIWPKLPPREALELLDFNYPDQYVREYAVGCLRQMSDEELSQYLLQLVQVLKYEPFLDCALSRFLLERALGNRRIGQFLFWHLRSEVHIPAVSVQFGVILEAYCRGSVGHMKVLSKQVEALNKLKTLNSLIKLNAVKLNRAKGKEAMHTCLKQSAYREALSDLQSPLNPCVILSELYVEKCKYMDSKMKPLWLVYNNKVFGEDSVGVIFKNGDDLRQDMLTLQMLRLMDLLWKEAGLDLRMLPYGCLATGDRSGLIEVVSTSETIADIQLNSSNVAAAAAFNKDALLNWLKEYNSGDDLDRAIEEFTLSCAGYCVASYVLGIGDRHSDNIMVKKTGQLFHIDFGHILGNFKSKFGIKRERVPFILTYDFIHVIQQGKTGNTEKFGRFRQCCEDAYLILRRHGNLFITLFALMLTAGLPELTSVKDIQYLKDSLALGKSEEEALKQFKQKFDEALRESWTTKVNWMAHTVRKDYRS

[8] = biological target: T1, Serine/threonine-protein kinase mTOR; experiment: Inhibition of mTOR in mouse TSC1-/- MEF cells assessed as inhibition of S6 Ser240/244 phosphorylation incubated for 2 hrs by fluorescence based assay; type: cell-based
[9] = Stability in mouse liver microsomes assessed as intrinsic clearance; type: ADME, Microsome; details: read-out: CLH
[10] = biological target: Phosphatidylinositol 4,5-bisphosphate 3-kinase catalytic subunit gamma isoform (Homo sapiens, UniProt P48736); experiment: Inhibition of PI3Kgamma (unknown origin)
Cytochrome P450 2D6 = Cytochrome P450 2D6 (Homo sapiens, UniProt P10635); experiment: Inhibition of CYP2D6 (unknown origin); type: ADME
Cytochrome P450 2D6, sequence (P10635 whole entry, canonical isoform): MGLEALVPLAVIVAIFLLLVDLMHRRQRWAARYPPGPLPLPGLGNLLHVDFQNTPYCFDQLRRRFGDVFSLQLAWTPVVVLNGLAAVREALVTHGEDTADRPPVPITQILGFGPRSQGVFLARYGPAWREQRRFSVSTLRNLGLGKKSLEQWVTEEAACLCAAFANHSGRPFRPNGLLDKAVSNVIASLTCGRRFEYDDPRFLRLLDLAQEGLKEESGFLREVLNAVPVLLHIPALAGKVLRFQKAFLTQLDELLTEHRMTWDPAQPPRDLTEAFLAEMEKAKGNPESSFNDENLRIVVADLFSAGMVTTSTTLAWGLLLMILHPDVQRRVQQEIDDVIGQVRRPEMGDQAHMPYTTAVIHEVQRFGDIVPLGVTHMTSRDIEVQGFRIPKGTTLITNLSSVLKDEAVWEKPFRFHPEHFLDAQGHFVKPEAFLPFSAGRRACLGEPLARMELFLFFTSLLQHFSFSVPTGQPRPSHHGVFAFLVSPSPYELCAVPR

[11] = biological target: Phosphatidylinositol 4,5-bisphosphate 3-kinase catalytic subunit delta isoform (Homo sapiens, UniProt O00329); experiment: Inhibition of PI3Kdelta (unknown origin)
Phosphatidylinositol 4,5-bisphosphate 3-kinase catalytic subunit delta isoform, sequence (O00329 whole entry, canonical isoform): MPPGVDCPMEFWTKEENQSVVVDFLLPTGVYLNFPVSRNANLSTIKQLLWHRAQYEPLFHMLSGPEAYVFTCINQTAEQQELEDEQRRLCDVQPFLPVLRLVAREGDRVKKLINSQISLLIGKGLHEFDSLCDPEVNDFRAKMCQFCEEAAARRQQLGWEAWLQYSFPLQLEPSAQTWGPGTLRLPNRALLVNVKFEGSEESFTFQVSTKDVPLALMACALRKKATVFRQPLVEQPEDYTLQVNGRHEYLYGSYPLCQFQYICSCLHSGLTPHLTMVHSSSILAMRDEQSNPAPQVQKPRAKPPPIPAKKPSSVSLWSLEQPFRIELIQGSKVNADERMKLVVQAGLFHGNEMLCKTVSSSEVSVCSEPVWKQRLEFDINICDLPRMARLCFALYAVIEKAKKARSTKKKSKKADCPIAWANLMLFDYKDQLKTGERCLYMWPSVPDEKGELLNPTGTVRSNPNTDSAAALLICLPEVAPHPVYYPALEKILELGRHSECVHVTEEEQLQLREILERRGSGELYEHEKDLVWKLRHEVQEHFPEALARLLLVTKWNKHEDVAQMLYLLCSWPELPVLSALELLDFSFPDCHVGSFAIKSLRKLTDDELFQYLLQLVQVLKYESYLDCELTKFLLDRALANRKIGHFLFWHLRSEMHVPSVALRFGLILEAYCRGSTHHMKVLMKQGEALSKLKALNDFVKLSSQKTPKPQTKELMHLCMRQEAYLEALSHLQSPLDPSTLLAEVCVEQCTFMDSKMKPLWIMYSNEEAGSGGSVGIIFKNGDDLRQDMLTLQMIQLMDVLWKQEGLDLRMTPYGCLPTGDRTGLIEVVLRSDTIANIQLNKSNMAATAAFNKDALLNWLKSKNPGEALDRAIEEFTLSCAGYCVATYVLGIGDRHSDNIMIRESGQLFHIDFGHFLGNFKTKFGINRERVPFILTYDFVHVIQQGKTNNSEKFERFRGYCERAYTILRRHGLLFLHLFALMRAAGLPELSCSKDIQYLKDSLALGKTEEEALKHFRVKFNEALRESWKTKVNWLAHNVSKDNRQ

[12] = Stability in dog liver microsomes assessed as intrinsic clearance; type: ADME, Canis lupus familiaris, Microsome; details: read-out: CLH
[13] = Stability in monkey liver microsomes assessed as intrinsic clearance; type: ADME, Macaca mulatta, Microsome; details: rhesus monkey, read-out: CLH
Cytochrome P450 2C9 = Cytochrome P450 2C9 (Homo sapiens, UniProt P11712); experiment: Inhibition of CYP2C9 (unknown origin); type: ADME
Cytochrome P450 2C9, sequence (P11712 whole entry): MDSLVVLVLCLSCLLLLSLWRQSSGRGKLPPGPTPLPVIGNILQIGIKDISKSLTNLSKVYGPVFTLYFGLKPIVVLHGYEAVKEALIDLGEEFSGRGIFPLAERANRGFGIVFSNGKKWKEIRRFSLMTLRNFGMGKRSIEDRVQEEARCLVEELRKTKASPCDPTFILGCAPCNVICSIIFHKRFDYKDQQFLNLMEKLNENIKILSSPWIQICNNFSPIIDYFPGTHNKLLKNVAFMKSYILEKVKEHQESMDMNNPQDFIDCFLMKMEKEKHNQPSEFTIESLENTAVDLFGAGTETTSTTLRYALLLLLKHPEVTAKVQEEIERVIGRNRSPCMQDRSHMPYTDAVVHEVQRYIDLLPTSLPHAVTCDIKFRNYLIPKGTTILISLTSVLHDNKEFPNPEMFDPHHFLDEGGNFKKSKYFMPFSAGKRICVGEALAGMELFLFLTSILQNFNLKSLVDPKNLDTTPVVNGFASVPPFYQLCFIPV

[14] = Stability in human liver microsomes assessed as intrinsic clearance; type: ADME, Microsome; details: read-out: CLH
[15] = Stability in rat liver microsomes assessed as intrinsic clearance; type: ADME, Microsome; details: read-out: CLH

## C[C@@H]1COCCN1c1nc(N2CCOC[C@@H]2C)nc2sc(-c3c[nH]cn3)nc12
Cytochrome P450 3A4
  K: 0.013 min⁻¹
[1]
  IC50: 7.8 nM
MDR1
  efflux ratio: 0.89

## C[C@@H]1COCCN1c1nc(C2CCOCC2)nc2sc(-c3cc[nH]n3)nc12
Cytochrome P450 3A4
  K: 0.003 min⁻¹
[1]
  IC50: 6.3 nM
[2]
  microsomal CLint at 1 µM: 37 µL/min/mg
[3]
  solubility: 9 µg/mL (≈ 23.3 µM)

## CO[C@H]1C[C@@H]2CC[C@@H](C)[C@@](O)(O2)C(=O)C(=O)N2CCCC[C@H]2C(=O)O[C@H]([C@H](C)C[C@@H]2CC[C@@H](OCCO)[C@H](OC)C2)CC(=O)[C@H](C)/C=C(\C)[C@@H](O)[C@@H](OC)C(=O)[C@H](C)C[C@H](C)/C=C/C=C/C=C/1C [EVEROLIMUS]
Cortical neurone [4]
  IC50: 0.15 nM
Cortical neurone [5]
  inhibition: Active
Mus musculus
  Activity: 100%

## C[C@@H]1COCCN1c1nc(N2CCCOCC2)nc2sc(-c3cc[nH]n3)nc12
Cytochrome P450 3A4
  K: 0.011 min⁻¹
[1]
  IC50: 2.7 nM
[2]
  microsomal CLint at 1 µM: 164 µL/min/mg
[3]
  solubility: < 2 µg/mL

## C[C@@H]1COCCN1c1nc(N2CCOC[C@@H]2C)nc2sc(-c3cn[nH]n3)nc12
Cytochrome P450 3A4
  K: 0.01 min⁻¹
[1]
  IC50: 6.9 nM
MDR1
  efflux ratio: 0.65

## C[C@@H]1COCCN1c1nc(N2CCOCC2)nc2sc(-c3cc[nH]n3)nc12
Cytochrome P450 3A4
  K: 0.011 min⁻¹
[1]
  IC50: 5.3 nM
[2]
  microsomal CLint at 1 µM: 24 µL/min/mg
[3]
  solubility: 4 µg/mL (≈ 10.3 µM)

## C[C@@H]1COCCN1c1nc(N2CCN(C)CC2)nc2sc(-c3cc[nH]n3)nc12
Cytochrome P450 3A4
  K: 0.001 min⁻¹
[1]
  IC50: 134 nM
[2]
  microsomal CLint at 1 µM: > 924 µL/min/mg
[3]
  solubility: 191 µg/mL (≈ 477 µM)

## C[C@@H]1COCCN1c1nc(N2CCOC[C@@H]2C)nc2[nH]c(-c3cccc4[nH]ccc34)nc12
[6]
  IC50: 6.6 µM
[7]
  IC50: > 10 µM
[8]
  IC50: 38 nM
Cytochrome P450 3A4
  K: 0.08 min⁻¹
[9]
  microsomal CLint: 62 µL/min/mg
[10]
  IC50: 6.6 µM
Cytochrome P450 2D6
  IC50: 12.8 µM
[11]
  IC50: 800 nM
[12]
  microsomal CLint: 60 µL/min/mg
[13]
  microsomal CLint: 121 µL/min/mg
Cytochrome P450 2C9
  IC50: 1980 nM
MDR1
  efflux ratio: 0.95
[14]
  microsomal CLint: 27 µL/min/mg
[15]
  microsomal CLint: 35 µL/min/mg

## C[C@@H]1COCCN1c1nc(N2CCOC[C@@H]2C)nc2sc(-c3cccc4[nH]ccc34)nc12
Cytochrome P450 3A4
  K: 0.027 min⁻¹
[1]
  IC50: 305 nM

## C[C@@H]1COCCN1c1nc(CN2CCOCC2)nc2sc(-c3cc[nH]n3)nc12
Cytochrome P450 3A4
  K: 0.008 min⁻¹
[1]
  IC50: 92 nM
[2]
  microsomal CLint at 1 µM: > 924 µL/min/mg
[3]
  solubility: 325 µg/mL (≈ 809 µM)

## C[C@@H]1COCCN1c1ncnc2sc(-c3cc[nH]n3)nc12
Cytochrome P450 3A4
  K: 0.006 min⁻¹
[1]
  IC50: 603 nM
[2]
  microsomal CLint at 1 µM: 100 µL/min/mg

## C[C@@H]1COCCN1c1nc(N2CCOC[C@@H]2C)nc2sc(-c3cccc(O)c3)nc12
Cytochrome P450 3A4
  K: 0.035 min⁻¹
[1]
  IC50: 278 nM

## CC(C)c1nc(N2CCOC[C@H]2C)c2nc(-c3cc[nH]n3)sc2n1
Cytochrome P450 3A4
  K: 0.012 min⁻¹
[1]
  IC50: 3.7 nM
[2]
  microsomal CLint at 1 µM: 104 µL/min/mg
[3]
  solubility: < 1 µg/mL

## C[C@@H]1COCCN1c1nc(N2CCOC[C@@H]2C)nc2sc(-c3cn[nH]c3)nc12
Cytochrome P450 3A4
  K: 0.02 min⁻¹
[1]
  IC50: 56 nM
